Test in all cases: Glasshouse assay for herbicidal activity (pre- and post-emergence), percentage phytotoxicity
Assay type in all cases: in vivo

One test deals with Avena fatua (AVEFA). Particulars: Avena fatua, 250 g/ha, visual assessment (100%=total damage, 0%=no damage). Put shortly:
(§1)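 Seeds were sown in standard soil in pots and grown one day (pre-emergence) or about 12 days (post-emergence) before herbicide application. Plants were kept at 24/18 °C (warm-climate) or 20/16 °C (cool-climate) day/night, 16 h light, 65% humidity, watered twice daily, and damage was scored visually at 15 DAA (POST) or 20 DAA (PRE).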

The test system of test [1] is Alopecurus myosuroides (ALOMY). The note with it: Alopecurus myosuroides, 250 g/ha, visual assessment (100%=total damage, 0%=no damage). Put shortly:
as §1

The subject of test [2] is Echinochloa crus-galli (ECHCG). Particulars: Echinochloa crus-galli, 250 g/ha, visual assessment (100%=total damage, 0%=no damage). The procedure, abridged:
as §1

For another test, the system named is Lolium perenne (LOLPE). The note with it: Lolium perenne, 250 g/ha, visual assessment (100%=total damage, 0%=no damage). The procedure, abridged:
as §1

Setting [3] is: post-emergence, 360 h, post-emergence, 15 DAA, read-out: Post-emergence herbicidal activity (percentage phytotoxicity) AVEFA POST.
[4] abbreviates: pre-emergence, 480 h, pre-emergence, 20 DAA, read-out: Pre-emergence herbicidal activity (percentage phytotoxicity) AVEFA PRE.
[5] abbreviates: post-emergence, 360 h, post-emergence, 15 DAA, read-out: Post-emergence herbicidal activity (percentage phytotoxicity) ALOMY POST.
The mark [6] stands for this setting: pre-emergence, 480 h, pre-emergence, 20 DAA, read-out: Pre-emergence herbicidal activity (percentage phytotoxicity) ALOMY PRE.
The mark [7] stands for this setting: post-emergence, 360 h, post-emergence, 15 DAA, read-out: Post-emergence herbicidal activity (percentage phytotoxicity) ECHCG POST.
[8] abbreviates: pre-emergence, 480 h, pre-emergence, 20 DAA, read-out: Pre-emergence herbicidal activity (percentage phytotoxicity) ECHCG PRE.
Where [9] appears, read: post-emergence, 360 h, post-emergence, 15 DAA, read-out: Post-emergence herbicidal activity (percentage phytotoxicity) LOLPE POST.
[10] abbreviates: pre-emergence, 480 h, pre-emergence, 20 DAA, read-out: Pre-emergence herbicidal activity (percentage phytotoxicity) LOLPE PRE.

Drawing on patent US10206394B2, “Herbicidal compounds” (Syngenta Participations AG, priority 2014, dated 2019), this text covers pest or weed control for 17 molecules.

Each structure is given as a SMILES string. Where two headings read alike, the source gives them in different places.

In the case of `Cc1cc(Br)cc(C)c1C1C(=O)CC(CC(=O)NCC2CC2(Cl)Cl)C1=O` (stereo not shown) [Compound B141], the pest or weed control at 250 g/ha with Avena fatua (AVEFA) (setting [3]) is 90%; in the test on Avena fatua (AVEFA) (setting [4]), 60%; in test [1] (setting [5]) it was 80%; in test [1] (setting [6]), 90%; in test [2] (setting [7]), 80%; in test [2] (setting [8]) it was 70%. For the same molecule, the pest or weed control at 250 g/ha with Lolium perenne (LOLPE) (setting [9]) and with Lolium perenne (LOLPE) (setting [10]) was 80% each time.
As to `Cc1cc(Br)cc(C)c1C1C(=O)CC(CC(=O)NCC2CC2C(F)F)C1=O` (stereo not shown) [Compound B142], the pest or weed control at 250 g/ha in the test with Avena fatua (AVEFA) (setting [3]) was 90%; in the test on Avena fatua (AVEFA) (setting [4]), 70%; in test [1] (setting [5]), 90%; in test [1] (setting [6]) it was 90%; in test [2] (setting [7]), 80%; in test [2] (setting [8]) it was 0%. Further, the pest or weed control at 250 g/ha with Lolium perenne (LOLPE) (setting [9]) is 90%; with Lolium perenne (LOLPE) (setting [10]), 70%.
`Cc1cc(-c2ncc(Cl)cc2F)cc(C)c1C1C(=O)CC(CC(=O)NCC2CC2C(F)F)C1=O` (stereo not shown) [Compound B143]: the pest or weed control at 250 g/ha in the test on Avena fatua (AVEFA) (setting [3]) is 100%; in the test on Avena fatua (AVEFA) (setting [4]), 90%; in test [1] (setting [5]) it was 100%; in test [1] (setting [6]), 90%; in test [2] (setting [7]) it was 100%; in test [2] (setting [8]) it was 100%. For the same molecule, the pest or weed control at 250 g/ha in the test on Lolium perenne (LOLPE) (setting [9]) and in the test with Lolium perenne (LOLPE) (setting [10]) was 100% in each case.
As for `CCCNC(=O)CC1CC(=O)C(c2c(C)cc(-c3ncc(Cl)cc3F)cc2C)C1=O` (stereo not shown) [Compound B144], the pest or weed control at 250 g/ha (in the test on Avena fatua (AVEFA) (setting [3]); in the test on Avena fatua (AVEFA) (setting [4]); in test [1] (setting [5]); in test [1] (setting [6]); in test [2] (setting [7]); in test [2] (setting [8])) was 100% throughout. Also, the pest or weed control at 250 g/ha in the test with Lolium perenne (LOLPE) (setting [9]) and in the test on Lolium perenne (LOLPE) (setting [10]) was 100% throughout.
Regarding `CCCNC(=O)CC1CC(=O)C(c2c(C)cc(Br)cc2C)C1=O` (stereo not shown) [Compound B145], the pest or weed control at 250 g/ha in the test with Avena fatua (AVEFA) (setting [3]) turned out to be 90%; in the test on Avena fatua (AVEFA) (setting [4]), 60%; in test [1] (setting [5]) it was 80%; in test [1] (setting [6]), 70%; in test [2] (setting [7]) it was 80%; in test [2] (setting [8]), 80%. Also, the pest or weed control at 250 g/ha in the test on Lolium perenne (LOLPE) (setting [9]) and in the test with Lolium perenne (LOLPE) (setting [10]) was 90% each time.
On to `Cc1cc(OCC(F)(F)F)cc(C)c1C1C(=O)CC(CC(=O)N2CCOCC2)C1=O` (stereo not shown) [Compound B146], for which the pest or weed control at 250 g/ha came to 90% in the test with Avena fatua (AVEFA) (setting [3]); 50% in the test with Avena fatua (AVEFA) (setting [4]); 80% in test [1] (setting [5]); 90% in test [1] (setting [6]); 100% in test [2] (setting [7]); 100% in test [2] (setting [8]). Moreover, the pest or weed control at 250 g/ha with Lolium perenne (LOLPE) (setting [9]) and in the test on Lolium perenne (LOLPE) (setting [10]) was 90% throughout.
With `C=C(C)CNC(=O)CC1CC(=O)C(c2c(C)cc(OCC(F)(F)F)cc2C)C1=O` (stereo not shown) [Compound B147], the pest or weed control at 250 g/ha with Avena fatua (AVEFA) (setting [3]) was determined as 90%; with Avena fatua (AVEFA) (setting [4]) it was 50%; in test [1] (setting [5]), 80%; in test [1] (setting [6]), 90%; in test [2] (setting [7]), 90%; in test [2] (setting [8]), 100%. Also, the pest or weed control at 250 g/ha in the test with Lolium perenne (LOLPE) (setting [9]) came out at 60%; with Lolium perenne (LOLPE) (setting [10]) it was 90%.
For `CCc1cccc(C)c1C1C(=O)CC(CC(=O)N2CCOCC2)C1=O` (stereo not shown) [Compound B148], the pest or weed control at 250 g/ha in the test on Avena fatua (AVEFA) (setting [3]) turned out to be 100%; in the test with Avena fatua (AVEFA) (setting [4]) it was 70%; in test [1] (setting [5]), 90%; in test [1] (setting [6]), 70%; in test [2] (setting [7]), 100%; in test [2] (setting [8]), 100%. The figures for the pest or weed control at 250 g/ha in the test on Lolium perenne (LOLPE) (setting [9]) and with Lolium perenne (LOLPE) (setting [10]) were 90% and 80%, respectively.
Take `CCc1cccc(C)c1C1C(=O)CC(CC(=O)NC(C)(C)C)C1=O` (stereo not shown) [Compound B149]: the pest or weed control at 250 g/ha with Avena fatua (AVEFA) (setting [3]) is 90%; with Avena fatua (AVEFA) (setting [4]), 80%; in test [1] (setting [5]) it was 90%; in test [1] (setting [6]), 90%; in test [2] (setting [7]) it was 90%; in test [2] (setting [8]), 100%. Further, the pest or weed control at 250 g/ha with Lolium perenne (LOLPE) (setting [9]) was 80%; in the test with Lolium perenne (LOLPE) (setting [10]), 90%.
Consider `CCCNC(=O)CC1CC(=O)C(c2c(C)cccc2CC)C1=O` (stereo not shown) [Compound B150], for which the pest or weed control at 250 g/ha with Avena fatua (AVEFA) (setting [3]) stood at 100%; in the test with Avena fatua (AVEFA) (setting [4]), 90%; in test [1] (setting [5]), 100%; in test [1] (setting [6]) it was 100%; in test [2] (setting [7]), 100%; in test [2] (setting [8]), 100%. Also, the pest or weed control at 250 g/ha with Lolium perenne (LOLPE) (setting [9]) and in the test with Lolium perenne (LOLPE) (setting [10]) was 100% in each case.
Consider `C#CCNC(=O)CC1CC(=O)C(c2c(C)cccc2CC)C1=O` (stereo not shown) [Compound B151], for which the pest or weed control at 250 g/ha in the test with Avena fatua (AVEFA) (setting [3]) was 100%; with Avena fatua (AVEFA) (setting [4]), 90%; in test [1] (setting [5]), 100%; in test [1] (setting [6]) it was 100%; in test [2] (setting [7]) it was 100%; in test [2] (setting [8]), 100%. In addition, the pest or weed control at 250 g/ha in the test with Lolium perenne (LOLPE) (setting [9]) and in the test on Lolium perenne (LOLPE) (setting [10]) was 90% throughout.
For `C=C(C)CNC(=O)CC1CC(=O)C(c2c(C)cccc2CC)C1=O` (stereo not shown) [Compound B152], the pest or weed control at 250 g/ha in the test on Avena fatua (AVEFA) (setting [3]) amounted to 90%; with Avena fatua (AVEFA) (setting [4]), 50%; in test [1] (setting [5]), 100%; in test [1] (setting [6]), 100%; in test [2] (setting [7]), 100%; in test [2] (setting [8]) it was 100%. For the same molecule, the pest or weed control at 250 g/ha with Lolium perenne (LOLPE) (setting [9]) stood at 90%; in the test with Lolium perenne (LOLPE) (setting [10]), 100%.
Regarding `C/C=C/c1cc(C)c(C2C(=O)CC(CC(N)=O)C2=O)c(CC)c1` (stereo not shown) [Compound B153], the pest or weed control at 250 g/ha in the test on Avena fatua (AVEFA) (setting [3]) was found to be 100%; with Avena fatua (AVEFA) (setting [4]), 70%; in test [1] (setting [5]) it was 100%; in test [1] (setting [6]), 90%; in test [2] (setting [7]), 100%; in test [2] (setting [8]), 90%. Moreover, the values for the pest or weed control at 250 g/ha in the test on Lolium perenne (LOLPE) (setting [9]) and with Lolium perenne (LOLPE) (setting [10]) were 100% and 80%, respectively.
For `Cc1cc(OCC(F)(F)F)cc(C)c1C1C(=O)CC(CC(N)=O)C1=O` (stereo not shown) [Compound B154], the pest or weed control at 250 g/ha in the test with Avena fatua (AVEFA) (setting [3]) stood at 70%; in the test on Avena fatua (AVEFA) (setting [4]) it was 50%; in test [1] (setting [5]) it was 70%; in test [1] (setting [6]), 90%; in test [2] (setting [7]), 90%; in test [2] (setting [8]), 80%. In addition, the pest or weed control at 250 g/ha with Lolium perenne (LOLPE) (setting [9]) and with Lolium perenne (LOLPE) (setting [10]) was 70% throughout.
Take `CC#Cc1cc(C)c(C2C(=O)CC(CC(=O)N3CCOCC3)C2=O)c(C)c1` (stereo not shown) [Compound B155]: the pest or weed control at 250 g/ha came out at 100% in the test with Avena fatua (AVEFA) (setting [3]); 100% in the test on Avena fatua (AVEFA) (setting [4]); 100% in test [1] (setting [5]); 90% in test [1] (setting [6]); 100% in test [2] (setting [7]); 100% in test [2] (setting [8]). Also, the pest or weed control at 250 g/ha in the test on Lolium perenne (LOLPE) (setting [9]) and in the test on Lolium perenne (LOLPE) (setting [10]) was 100% each time.
For the molecule `CC#Cc1cc(C)c(C2C(=O)CC(CC(=O)NCCCOC)C2=O)c(C)c1` (stereo not shown) [Compound B156], the pest or weed control at 250 g/ha (with Avena fatua (AVEFA) (setting [3]); in the test on Avena fatua (AVEFA) (setting [4]); in test [1] (setting [5]); in test [1] (setting [6]); in test [2] (setting [7]); in test [2] (setting [8])) was 100% throughout. The pest or weed control at 250 g/ha with Lolium perenne (LOLPE) (setting [9]) and with Lolium perenne (LOLPE) (setting [10]) was 100% in each case.
In the case of `C=CCNC(=O)CC1CC(=O)C(c2c(C)cc(C#CC)cc2C)C1=O` (stereo not shown) [Compound B157], the pest or weed control at 250 g/ha with Avena fatua (AVEFA) (setting [3]) is 100%; in the test with Avena fatua (AVEFA) (setting [4]), 90%; in test [1] (setting [5]), 100%; in test [1] (setting [6]), 100%; in test [2] (setting [7]), 100%; in test [2] (setting [8]), 100%. Further, the pest or weed control at 250 g/ha in the test with Lolium perenne (LOLPE) (setting [9]) and with Lolium perenne (LOLPE) (setting [10]) was 100% each time.
